Source: patent US7384927B2, “Alkylated porphyrins as pesticides acting both in the presence and absence of light” (priority 2003, dated 2008)

Assays:
Assay type in all cases: in vivo
[1] = tested on: Stomoxis calcitrans flies; test: Insecticidal action in the dark: fly survival after porphyrin bait; conditions: fed 24 h, survival 12 h after change to porphyrin-free bait
Protocol: (§1) These flies were then used in the various experimental sessions. […] The number of survivors was evaluated 12 h after switching from administration of a porphyrin-containing bait to a porphyrin-free bait. In none of the experiments was mortality or any apparent toxic effect observed in control flies (flies not fed with porphyrin, see survival at 0 μM porphyrin concentration).

[2] = tested on: Bactrocera oleae flies; test: as above; conditions: fed 24 h, survival 12 h after change to porphyrin-free bait
Protocol: as §1

[3] = tested on: Ceratitis capitata (fruit fly); test: Uptake of alkylated porphyrins by flies fed porphyrin-containing bait; conditions: C. capitata
Protocol: (§2) Porphyrins: • a) meso[tri(N-methyl-pyridyl), mono(N-dodecyl-pyridyl)]porphine (abbr.: C12) • b) meso[tri(N-methyl-pyridyl), mono(N-tetradecyl-pyridyl)]porphine (abbr.: C14) • c) meso[tri(N-methyl-pyridyl), mono(N-octadecyl-pyridyl)]porphine (abbr.: C18) Bait: Aqueous solution containing 10% sucrose and 1% autolysed yeast Flies: • a) Ceratitis capitata (fruit fly) age: 1 week; weight: 5-6 mg • b) Bactrocera oleae (olive fly) age: 10 days; weight: 4-4.5 mg • c) Stomoxis calcitrans (stable fly) age: 10 days; weight: 12 mg Irradiation: • a) High pressure halogen lamp, equipped with infrared and UV filters, emission 360-850 nm, operated at intensities in the 760-2,000 μE s^−1m^−2 range • b) Sunlight, mid June at Padua latitude, average intensity of […] μE s^−1m^−2 with minimum and maximum values of 950 and, respectively, 1,380 μE s^−1m^−2
(§3) An appropriate number of flies (50 flies per each experiment) was caged in 115×55×70 mm Plexiglas cages with several holes (ø=0.5 mm) and starved for 36 h. Then, depending on the protocol to be adopted for each specific experiment, the flies were fed with the bait (10% sucrose and 1% autolysed yeast in neutral aqueous solution), which was either porphyrin-free or added with a predetermined concentration of the porphyrin. These flies were then used in the various experimental sessions.
(§4) At predetermined times, the flies were sacrificed by freezing; the dead flies were then homogenized with a Polytron in 10 ml of a 2% aqueous solution of sodium dodecylsulphate (SDS). The suspension was centrifuged for 10 min at 2,000 rpm, the pellet was discarded and known aliquots of the supernatant were diluted by means of a chloroform/methanol binary mixture (1/2, v/v). The porphyrin concentration was measured by reading the fluorescence emitted at wavelengths above 630 nm and interpolating the emission intensity with a calibration plot obtained with known amounts of the porphyrin. The results were expressed as nanomoles of porphyrin recovered per fly.

[4] = tested on: Stomoxis calcitrans (stable fly); test: as above; conditions: S. calcitrans
Protocol: as §2, §3, §4

[5] = tested on: Bactrocera oleae (olive fly); test: as above; conditions: B. oleae
Protocol: as §2, §3, §4

[6] = tested on: Ceratitis capitata flies; test: Photoinsecticidal action: fly survival after bait and visible light irradiation (artificial lamp); conditions: for Survival (% of control untreated flies): survival 10 h after irradiation
Procedure, shortened: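 Medflies (1 week old, 50 per cage) starved 36 h, then fed 10% sucrose/1% autolysed yeast bait with or without porphyrin. Irradiated 1 h with filtered halogen lamp (360–850 nm) at 1220 μE s^−1m^−2; survival scored 10 h after irradiation, controls given porphyrin-free bait.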

[7] = tested on: Ceratitis capitata (fruit fly); test: Release of alkylated porphyrin from flies after feeding with bait interrupted; conditions: C. capitata, 1.25 μM porphyrin in the bait
Protocol: as §3, §4

[8] = tested on: Stomoxis calcitrans (stable fly); test: as above; conditions: S. calcitrans, 1.25 μM porphyrin in the bait
Protocol: as §3, §4

[9] = tested on: Bactrocera oleae (olive fly); test: as above; conditions: B. oleae, 1.25 μM porphyrin in the bait
Protocol: as §3, §4

[10] = tested on: Ceratitis capitata flies; test: Photoinsecticidal action: fly survival after bait and sunlight irradiation; conditions: 3 μM in bait, 12 h after feeding, survival 1 h after irradiation
[11] = exposure time to bait 3 h, porphyrin in bait 1.24 μM
[12] = exposure time to bait 12 h, porphyrin in bait 1.24 μM
[13] = exposure time to bait 24 h, porphyrin in bait 1.24 μM
[14] = porphyrin concentration in bait 0.75 (μmoles), feeding 24 h
[15] = porphyrin concentration in bait 1.25 (μmoles), feeding 24 h
[16] = porphyrin concentration in bait 2.10 (μmoles), feeding 24 h
[17] = porphyrin concentration in bait 3.50 (μmoles), feeding 24 h
[18] = porphyrin concentration in bait 6.00 (μmoles), feeding 24 h

SMILES: CCCCCCCCCCCCCCCCCC[n+]1ccc(-c2c3nc(c(-c4cc[n+](C)cc4)c4ccc([nH]4)c(-c4cc[n+](C)cc4)c4nc(c(-c5cc[n+](C)cc5)c5ccc2[nH]5)C=C4)C=C3)cc1 [C18, meso[tri(N-methyl-pyridyl), mono(N-octadecyl-pyridyl)]porphine]
- Survival (% of control untreated flies) ([1]; 0.75 μM in bait): 100 % of control untreated flies
- Survival (% of control untreated flies) ([1]; 1.25 μM in bait): 79 % of control untreated flies
- Survival (% of control untreated flies) ([1]; 2.10 μM in bait): 45 % of control untreated flies
- Survival (% of control untreated flies) ([1]; 3.00 μM in bait): 24 % of control untreated flies
- Survival (% of control untreated flies) ([1]; 5.00 μM in bait): 10 % of control untreated flies
- Survival (% of control untreated flies) ([1]; 8.10 μM in bait): 0 % of control untreated flies
- Survival (% of control untreated flies) ([2]; 0.75 μM in bait): 100 % of control untreated flies
- Survival (% of control untreated flies) ([2]; 1.25 μM in bait): 100 % of control untreated flies
- Survival (% of control untreated flies) ([2]; 2.10 μM in bait): 53 % of control untreated flies
- Survival (% of control untreated flies) ([2]; 3.00 μM in bait): 39 % of control untreated flies
- Survival (% of control untreated flies) ([2]; 5.00 μM in bait): 16 % of control untreated flies
- Survival (% of control untreated flies) ([2]; 8.10 μM in bait): 3 % of control untreated flies
- Recoveries (nmoles of porphyrin per fly) [3, 11]: 3.1 nmoles of porphyrin per fly
- Recoveries (nmoles of porphyrin per fly) [3, 12]: 6.6 nmoles of porphyrin per fly
- Recoveries (nmoles of porphyrin per fly) [3, 13]: 7.5 nmoles of porphyrin per fly
- Recoveries (nmoles of porphyrin per fly) [3, 14]: 3.6 nmoles of porphyrin per fly
- Recoveries (nmoles of porphyrin per fly) [3, 15]: 7.5 nmoles of porphyrin per fly
- Recoveries (nmoles of porphyrin per fly) [3, 16]: 8.3 nmoles of porphyrin per fly
- Recoveries (nmoles of porphyrin per fly) [3, 17]: 14.3 nmoles of porphyrin per fly
- Recoveries (nmoles of porphyrin per fly) [3, 18]: 16.2 nmoles of porphyrin per fly
- Recoveries (nmoles of porphyrin per fly) [4, 11]: 3.2 nmoles of porphyrin per fly
- Recoveries (nmoles of porphyrin per fly) [4, 12]: 8.9 nmoles of porphyrin per fly
- Recoveries (nmoles of porphyrin per fly) [4, 13]: 9.2 nmoles of porphyrin per fly
- Recoveries (nmoles of porphyrin per fly) [4, 14]: 5.9 nmoles of porphyrin per fly
- Recoveries (nmoles of porphyrin per fly) [4, 15]: 9.2 nmoles of porphyrin per fly
- Recoveries (nmoles of porphyrin per fly) [4, 16]: 12.8 nmoles of porphyrin per fly
- Recoveries (nmoles of porphyrin per fly) [4, 17]: 15.7 nmoles of porphyrin per fly
- Recoveries (nmoles of porphyrin per fly) [4, 18]: 15.7 nmoles of porphyrin per fly
- Recoveries (nmoles of porphyrin per fly) [5, 11]: 1.6 nmoles of porphyrin per fly
- Recoveries (nmoles of porphyrin per fly) [5, 12]: 7.7 nmoles of porphyrin per fly
- Recoveries (nmoles of porphyrin per fly) [5, 13]: 8.9 nmoles of porphyrin per fly
- Recoveries (nmoles of porphyrin per fly) [5, 14]: 5.2 nmoles of porphyrin per fly
- Recoveries (nmoles of porphyrin per fly) [5, 15]: 8.9 nmoles of porphyrin per fly
- Recoveries (nmoles of porphyrin per fly) [5, 16]: 9.7 nmoles of porphyrin per fly
- Recoveries (nmoles of porphyrin per fly) [5, 17]: 12.0 nmoles of porphyrin per fly
- Recoveries (nmoles of porphyrin per fly) [5, 18]: 12.9 nmoles of porphyrin per fly
- Survival (% of control untreated flies) ([6]; 3 μM in bait 24 h, time interval feeding-irradiation 0 h, irradiation 1 h at 1220 μE s^−1m^−2): 45 % of control untreated flies
- Survival (% of control untreated flies) ([6]; 3 μM in bait 24 h, time interval feeding-irradiation 12 h, irradiation 1 h at 1220 μE s^−1m^−2): 52 % of control untreated flies
- Survival (% of control untreated flies) ([6]; 3 μM in bait 24 h, time interval feeding-irradiation 24 h, irradiation 1 h at 1220 μE s^−1m^−2): 64 % of control untreated flies
- Survival (% of control untreated flies) ([6]; 3 μM in bait 24 h, time interval feeding-irradiation 48 h, irradiation 1 h at 1220 μE s^−1m^−2): 70 % of control untreated flies
- Survival (% of control untreated flies) ([6]; 3 μM in bait, fluence-rate 760 μE s^−1m^−2, irradiated 24 h after feeding (title)): 52 % of control untreated flies
- Survival (% of control untreated flies) ([6]; 3 μM in bait, fluence-rate 1220 μE s^−1m^−2, irradiated 24 h after feeding (title)): 45 % of control untreated flies
- Survival (% of control untreated flies) ([6]; 3 μM in bait, fluence-rate 1500 μE s^−1m^−2, irradiated 24 h after feeding (title)): 40 % of control untreated flies
- Survival (% of control untreated flies) ([6]; 3 μM in bait, fluence-rate 2000 μE s^−1m^−2, irradiated 24 h after feeding (title)): 31 % of control untreated flies
- photoinsecticidal action compared among alkylated porphyrins ([6]; irradiation with visible light or sunlight): drop in the overall photoactivity
- Recoveries (nmoles of porphyrin per fly), release ([7]; 12 h after feeding interrupted): 3.7 nmoles of porphyrin per fly
- Recoveries (nmoles of porphyrin per fly), release ([7]; 24 h after feeding interrupted): 2.2 nmoles of porphyrin per fly
- Recoveries (nmoles of porphyrin per fly), release ([7]; 48 h after feeding interrupted): 1.0 nmoles of porphyrin per fly
- Recoveries (nmoles of porphyrin per fly), release ([8]; 12 h after feeding interrupted): 4.2 nmoles of porphyrin per fly
- Recoveries (nmoles of porphyrin per fly), release ([8]; 24 h after feeding interrupted): 2.3 nmoles of porphyrin per fly
- Recoveries (nmoles of porphyrin per fly), release ([8]; 48 h after feeding interrupted): 1.1 nmoles of porphyrin per fly
- Recoveries (nmoles of porphyrin per fly), release ([9]; 12 h after feeding interrupted): 3.8 nmoles of porphyrin per fly
- Recoveries (nmoles of porphyrin per fly), release ([9]; 24 h after feeding interrupted): 1.7 nmoles of porphyrin per fly
- Recoveries (nmoles of porphyrin per fly), release ([9]; 48 h after feeding interrupted): 0.6 nmoles of porphyrin per fly
- Survival (% of control untreated flies) ([10]; sunlight (average 1150 μE s^−1m^−2) 15 min): 80 % of control untreated flies
- Survival (% of control untreated flies) ([10]; sunlight (average 1150 μE s^−1m^−2) 30 min): 75 % of control untreated flies
- Survival (% of control untreated flies) ([10]; sunlight (average 1150 μE s^−1m^−2) 45 min): 61 % of control untreated flies
- Survival (% of control untreated flies) ([10]; sunlight (average 1150 μE s^−1m^−2) 60 min): 31 % of control untreated flies
